Assay results taken from patent US20200308141A1, “SOLID STATE FORMS OF NERATINIB AND SALTS THEREOF” (PLIVA HRVATSKA D.O.O., priority 2016, published 2020).

Tests used:
[1] = Texture analysis (low-pressure compression, TA-XTplus Texture analyser); assay type: physicochemical; settings: for Compressed density index, CDI: 200 mg sample, cyclic compression up to 20 steps, CDI below 15 is considered good flowability
Description: A simple and low sample consuming method for evaluation of the packing density of powders were obtained as compression profiles under low pressures using a die and a flat-faced punch fitted on a TA-XTplus Texture analyser (Stable Micro Systems Ltd., Godalming, UK). The small amount of 200 mg of sample was compressed in a steel mould (with the rate of displacement 0.03 mm/s). Also, a cyclic procedure (similar to tapping) was performed at maximal compressive displacement 0.5 mm, then retracting, relaxation for 15 s and then repeated compressive steps (altogether up to 20 steps).
Density at 0.2 MPa and CDI data of Neratinib maleate Form monohydrate and Neratinib maleate Form B6 (prepared according to example 12) are presented in Table 2.

[2] = Solubility test according to European Pharmacopoeia 7.0, 5.11; assay type: physicochemical; settings: for Solubility: Ph. Eur. descriptive term
Description: Solubility test was performed according to European Pharmacopoeia 7.0, page 637, 5.11.

CCOc1cc2ncc(C#N)c(Nc3ccc(OCc4ccccn4)c(Cl)c3)c2cc1NC(=O)/C=C/CN(C)C [Neratinib base B6, (E)-N-{4-[3-Chloro-4-(2-pyridinylmethoxy)anilino]-3-cyano-7-ethoxy-6-quinolinyl}-4-(dimethylamino) -2-butenamide]
Density at 0.2 MPa ([1]; 200 mg sample compressed in steel mould, 0.03 mm/s, listed as crystalline form B6 of Neratinib base): higher than that of the Neratinib maleate monohydrate | Compressed density index, CDI ([1]; listed as Neratinib base Form B6): 10.89 | Compressed density index, CDI ([1]; listed as crystalline form B6 of Neratinib base): below 15 | Solubility compared with Neratinib maleate monohydrate ([2]; all tested conditions (pH 1.1, 4.5, 6.8), listed as Neratinib base form B6): good correlation | Solubility ([2]; pH = 1.1): sparingly | Solubility ([2]; pH = 4.5): slightly | Solubility ([2]; pH = 6.8): very slightly
